Test results: US10155750B2, “Amidoethyl azole orexin receptor antagonists” (Merck Sharp & Dohme Corp., priority 2014, dated 2018)
pIC50: −log10 of the molar value.

How the values were obtained:
[1] = biological target: human orexin-2 receptor (Homo sapiens (Human), UniProt O43614); assay: FLIPR Ca2+ flux assay, hOX2R; type: cell-based; settings: CHO cells expressing the receptor; agonist 70 pM Ala-6,12 human orexin-A
Protocol: The utility of the compounds in accordance with the present invention as orexin receptor OX1R and/or OX2R antagonists may be readily determined without undue experimentation by methodology well known in the art, including the “FLIPR Ca^2+ Flux Assay” (Okumura et al., Biochem. Biophys. Res. Comm. 280:976-981, 2001). In a typical experiment the OX1 and OX2 receptor antagonistic activity of the compounds of the present invention was determined in accordance with the following experimental method. For intracellular calcium measurements, Chinese hamster ovary (CHO) cells expressing the rat orexin-1 receptor or the human orexin-2 receptor, are grown in Iscove's modified DMEM containing 2 mM L-glutamine, […], 1% hypoxanthine-thymidine supplement, 100 U/ml penicillin, 100 μg/ml streptomycin and 10% heat-inactivated fetal calf serum (FCS). The cells are seeded at 20,000 cells/well into Becton-Dickinson black 384-well clear bottom sterile plates coated with poly-D-lysine. All reagents were from GIBCO-Invitrogen Corp. The seeded plates are incubated overnight at 37° C. and 5% CO2. Ala-6,12 human orexin-A as the agonist is prepared as a 1 mM stock solution in 1% bovine serum albumin (BSA) and diluted in assay buffer (HBSS containing 20 mM HEPES, 0.1% BSA and 2.5 mM probenecid, pH7.4) for use in the assay at a final concentration of 70 pM. Test compounds are prepared as 10 mM stock solution in DMSO, then diluted in 384-well plates, first in DMSO, then assay buffer. On the day of the assay, cells are washed 3 times with 100 μl assay buffer and then incubated for 60 min (37° C., 5% CO2) in 60 μl assay buffer containing 1 μM Fluo-4AM ester, 0.02% pluronic acid, and 1% BSA. The dye loading solution is then aspirated and cells are washed 3 times with 100 μl assay buffer. 30 μl of that same buffer is left in each well. Within the Fluorescent Imaging Plate Reader (FLIPR, Molecular Devices), test compounds are added to the plate in a volume of 25 μl, incubated for 5 min and finally 25 μl of agonist is added. Fluorescence is measured for each well at 1 second intervals for 5 minutes and the height of each fluorescence peak is compared to the height of the fluorescence peak induced by 70 pM Ala-6,12 orexin-A with buffer in place of antagonist. For each antagonist, IC50 value (the concentration of compound needed to inhibit 50% of the agonist response) is determined. Alternatively, compound potency can be assessed by a radioligand binding assay (described in Bergman et. al. Bioorg. Med. Chem. Lett. 2008, 18, 1425-1430) in which the inhibition constant (Ki) is determined in membranes prepared from CHO cells expressing either the OX1 or OX2 receptor. The intrinsic orexin receptor antagonist activity of a compound which may be used in the present invention may be determined by these assays.

[2] = biological target: hOX1R (orexin-1 receptor) (Homo sapiens, UniProt O43613); assay: FLIPR Ca2+ flux assay, hOX1R; type: cell-based; settings: CHO cells expressing the receptor; agonist 70 pM Ala-6,12 human orexin-A

human orexin-2 receptor, sequence (O43614 whole entry): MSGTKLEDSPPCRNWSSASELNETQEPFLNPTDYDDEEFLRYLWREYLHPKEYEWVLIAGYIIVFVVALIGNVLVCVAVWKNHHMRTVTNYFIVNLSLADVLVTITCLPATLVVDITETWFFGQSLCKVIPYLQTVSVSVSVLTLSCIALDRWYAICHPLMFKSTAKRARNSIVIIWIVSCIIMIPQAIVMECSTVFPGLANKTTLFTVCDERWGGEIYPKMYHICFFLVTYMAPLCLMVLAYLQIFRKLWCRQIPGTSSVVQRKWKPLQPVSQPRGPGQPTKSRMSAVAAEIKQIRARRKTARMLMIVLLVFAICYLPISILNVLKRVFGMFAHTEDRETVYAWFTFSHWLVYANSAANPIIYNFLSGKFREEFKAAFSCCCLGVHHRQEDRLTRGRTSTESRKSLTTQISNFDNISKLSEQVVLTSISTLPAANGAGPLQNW

Structure (SMILES)	pIC50 [1]	pIC50 [2]
CCN(CCn1ncc(C(C)(C)O)n1)C(=O)c1ccccc1-n1nccn1 [Example 1, N-Ethyl-N-(2-(4-(2-hydroxypropan-2-yl)-2H-1,2,3-triazol-2-yl)ethyl)-2-(2H-1,2,3-triazol-2-yl)benzamide]	7.24	< 5.00
CCN(CCn1ncc(C(C)(O)CC)n1)C(=O)c1ccccc1-n1nccn1 (centres unmarked) [Example 2, N-Ethyl-N-(2-(4-(2-hydroxybutan-2-yl)-2H-1,2,3-triazol-2-yl)ethyl)-2-(2H-1,2,3-triazol-2-yl)benzamide]	7.19	< 5.00
CCN(CCn1ncc(C(C)O)n1)C(=O)c1ccccc1-n1nccn1 (centres unmarked) [Example 3, N-Ethyl-N-(2-(4-(1-hydroxyethyl)-2H-1,2,3-triazol-2-yl)ethyl)-2-(2H-1,2,3-triazol-2-yl)benzamide]	6.43	< 5.00
CCN(CCn1ncc(C(C)(C)O)n1)C(=O)c1ccccc1C1CC1 [Example 4, 2-Cyclopropyl-N-ethyl-N-(2-(4-(2-hydroxypropan-2-yl)-2H-1,2,3-triazol-2-yl)ethyl)benzamide]	7.33	< 5.00
CCN(CCn1ncc(C(C)(C)O)n1)C(=O)c1ccccc1N1CCCC1 [Example 5, N-ethyl-N-(2-(4-(2-hydroxypropan-2-yl)-2H-1,2,3-triazol-2-yl)ethyl)-2-(pyrrolidin-1-yl)benzamide]	7.39	< 5.00
CCN(CCn1ncc(C(C)(C)O)n1)C(=O)c1ccccc1OC(F)(F)F [Example 12, N-ethyl-N-(2-(4-(2-hydroxypropan-2-yl)-2H-1,2,3-triazol-2-yl)ethyl)-2-(trifluoromethoxy)benzamide]	6.61	< 5.00
CCN(CCn1ncc(C(C)(C)O)n1)C(=O)c1ccccc1OC(C)C [Example 18, N-ethyl-N-(2-(4-(2-hydroxypropan-2-yl)-2H-1,2,3-triazol-2-yl)ethyl)-2-isopropoxybenzamide]	6.84	< 5.00
CCN(CCn1nc(C)c(C(C)(C)O)n1)C(=O)c1cccnc1OC(C)C [Example 22, N-ethyl-N-(2-(4-(2-hydroxypropan-2-yl)-5-methyl-2H-1,2,3-triazol-2-yl)ethyl)-2-isopropoxynicotinamide]	7.21	< 5.00
CCOc1ncccc1C(=O)N(CC)CCn1nc(C)c(C(C)(C)O)n1 [Example 23, 2-ethoxy-N-ethyl-N-(2-(4-(2-hydroxypropan-2-yl)-5-methyl-2H-1,2,3-triazol-2-yl)ethyl)nicotinamide]	7.24	< 5.00
CCN(CCn1nc(C)c(C(C)(C)O)n1)C(=O)c1cccnc1OCC(F)F [Example 24, 2-(2,2-difluoroethoxy)-N-ethyl-N-(2-(4-(2-hydroxypropan-2-yl)-5-methyl-2H-1,2,3-triazol-2-yl)ethyl)nicotinamide]	7.36	< 5.00
CCN(CCn1nc(C)c(C(C)(C)O)n1)C(=O)c1ccccc1OCC(F)(F)F [Example 33, N-ethyl-N-(2-(4-(2-hydroxypropan-2-yl)-5-methyl-2H-1,2,3-triazol-2-yl)ethyl)-2-(2,2,2-trifluoroethoxy) benzamide]	7.28	< 5.00
CCN(CCn1nc(C)c(C(C)(C)O)n1)C(=O)c1ccccc1CC(F)(F)F [Example 34, N-ethyl-N-(2-(4-(2-hydroxypropan-2-yl)-5-methyl-2H-1,2,3-triazol-2-yl)ethyl)-2-(2,2,2-trifluoroethyl) benzamide]	7.43	< 5.00
CCN(CCn1nc(C)c(C(C)(C)O)n1)C(=O)c1cccnc1CC(F)(F)F [Example 36, N-ethyl-N-(2-(4-(2-hydroxypropan-2-yl)-5-methyl-2H-1,2,3-triazol-2-yl)ethyl)-2-(2,2,2-trifluoroethyl) nicotinamide]	6.57	< 5.00

Now those with a higher pIC50 [1], led by results:

pIC50 [1]	pIC50 [2]	Structure (SMILES)
7.46	< 5.00	CCN(CCn1nc(C)c(C(C)(C)O)n1)C(=O)c1ccccc1OC(F)F [Example 25, 2-(difluoromethoxy)-N-ethyl-N-(2-(4-(2-hydroxypropan-2-yl)-5-methyl-2H-1,2,3-triazol-2-yl)ethyl)benzamide]
7.46	< 5.00	CCN(CCn1nc(C)c(C(C)(C)O)n1)C(=O)c1ccccc1OCC(F)F [Example 35, 2-(2,2-difluoroethoxy)-N-ethyl-N-(2-(4-(2-hydroxypropan-2-yl)-5-methyl-2H-1,2,3-triazol-2-yl)ethyl)benzamide]
7.47	< 5.00	CCN(CCn1ncc(C(C)(C)O)n1)C(=O)c1ccccc1SC(F)(F)F [Example 11, N-ethyl-N-(2-(4-(2-hydroxypropan-2-yl)-2H-1,2,3-triazol-2-yl)ethyl)-2-((trifluoromethyl)thio)benzamide]
7.48	< 5.00	CCN(CCn1nc(C)c(C(C)(C)O)n1)C(=O)c1cccnc1-c1ccccc1 [Example 31, N-ethyl-N-(2-(4-(2-hydroxypropan-2-yl)-5-methyl-2H-1,2,3-triazol-2-yl)ethyl)-2-phenylnicotinamide]
7.49	5.66	CCCc1ccccc1C(=O)N(CC)CCn1nc(C)c(C(C)(C)O)n1 [Example 32, N-ethyl-N-(2-(4-(2-hydroxypropan-2-yl)-5-methyl-2H-1,2,3-triazol-2-yl)ethyl)-2-propylbenzamide]
7.55	< 5.00	CCN(CCn1nc(C)c(C(C)(C)O)n1)C(=O)c1ccccc1-n1cccn1 [Example 29, N-ethyl-N-(2-(4-(2-hydroxypropan-2-yl)-5-methyl-2H-1,2,3-triazol-2-yl)ethyl)-2-(1H-pyrazol-1-yl)benzamide]
7.57	< 5.00	CCOc1ccccc1C(=O)N(CC)CCn1nc(C)c(C(C)(C)O)n1 [Example 27, 2-ethoxy-N-ethyl-N-(2-(4-(2-hydroxypropan-2-yl)-5-methyl-2H-1,2,3-triazol-2-yl)ethyl)benzamide]
7.68	< 5.00	CCN(CCn1nc(C)c(C(C)(C)O)n1)C(=O)c1cccnc1OCC(F)(F)F [Example 21, N-Ethyl-N-(2-(4-(2-hydroxypropan-2-yl)-5-methyl-2H-1,2,3-triazol-2-yl)ethyl)-2-(2,2,2-trifluoroethoxy)nicotinamide]
7.72	< 5.00	CCN(CCn1nc(C)c(C(C)(C)O)n1)C(=O)c1ccccc1OC(F)(F)F [Example 26]
7.85	5.55	CCN(CCn1nc(C)c(C(C)(C)O)n1)C(=O)c1ccc(OC)nc1C1CC1 [Example 39, 2-cyclopropyl-N-ethyl-N-(2-(4-(2-hydroxypropan-2-yl)-5-methyl-2H-1,2,3-triazol-2-yl)ethyl)-6-methoxynicotinamide]
7.89	5.81	CCN(CCn1nc(C)c(C(C)(C)O)n1)C(=O)c1ccccc1C1CC1 [Example 28, 2-cyclopropyl-N-ethyl-N-(2-(4-(2-hydroxypropan-2-yl)-5-methyl-2H-1,2,3-triazol-2-yl)ethyl)benzamide]
7.92	5.54	CCN(CCn1nc(C)c(C(C)(C)O)n1)C(=O)c1ccccc1-n1nccn1 [Example 20, N-Ethyl-N-(2-(4-(2-hydroxypropan-2-yl)-5-methyl-2H-1,2,3-triazol-2-yl)ethyl)-2-(2H-1,2,3-triazol-2-yl)benzamide]
8.00	5.26	CCN(CCn1nc(C)c(C(C)(C)O)n1)C(=O)c1ccc(F)cc1-n1nccn1 [Example 30, N-ethyl-4-fluoro-N-(2-(4-(2-hydroxypropan-2-yl)-5-methyl-2H-1,2,3-triazol-2-yl)ethyl)-2-(2H-1,2,3-triazol-2-yl)benzamide]
8.00	< 5.00	CCN(CCn1nc(C)c(C(C)(C)O)n1)C(=O)c1ccccc1CC(F)F [Example 37, 2-(2,2-difluoroethyl)-N-ethyl-N-(2-(4-(2-hydroxypropan-2-yl)-5-methyl-2H-1,2,3-triazol-2-yl)ethyl)benzamide]
8.00	5.83	CCN(CCn1nc(C)c(C(C)(C)O)n1)C(=O)c1ccccc1C1CC1(F)F (centres unmarked) [Example 38, 2-(2,2-difluorocyclopropyl)-N-ethyl-N-(2-(4-(2-hydroxypropan-2-yl)-5-methyl-2H-1,2,3-triazol-2-yl)ethyl)benzamide]
